Square brackets hold non-standard residues; d marks the D form. Peptide text beside a SMILES is read from it. Tic = O=C(O)[C@@H]1Cc2ccccc2CN1
Each molecule was assayed against T1, Dipeptidyl peptidase 4 (Homo sapiens, UniProt P27487) (assay: Percent inhibition against Dipeptidyl peptidase IV (DPP IV) at a concentration of 1 uM).
T1 sequence (P27487 whole entry, looked up): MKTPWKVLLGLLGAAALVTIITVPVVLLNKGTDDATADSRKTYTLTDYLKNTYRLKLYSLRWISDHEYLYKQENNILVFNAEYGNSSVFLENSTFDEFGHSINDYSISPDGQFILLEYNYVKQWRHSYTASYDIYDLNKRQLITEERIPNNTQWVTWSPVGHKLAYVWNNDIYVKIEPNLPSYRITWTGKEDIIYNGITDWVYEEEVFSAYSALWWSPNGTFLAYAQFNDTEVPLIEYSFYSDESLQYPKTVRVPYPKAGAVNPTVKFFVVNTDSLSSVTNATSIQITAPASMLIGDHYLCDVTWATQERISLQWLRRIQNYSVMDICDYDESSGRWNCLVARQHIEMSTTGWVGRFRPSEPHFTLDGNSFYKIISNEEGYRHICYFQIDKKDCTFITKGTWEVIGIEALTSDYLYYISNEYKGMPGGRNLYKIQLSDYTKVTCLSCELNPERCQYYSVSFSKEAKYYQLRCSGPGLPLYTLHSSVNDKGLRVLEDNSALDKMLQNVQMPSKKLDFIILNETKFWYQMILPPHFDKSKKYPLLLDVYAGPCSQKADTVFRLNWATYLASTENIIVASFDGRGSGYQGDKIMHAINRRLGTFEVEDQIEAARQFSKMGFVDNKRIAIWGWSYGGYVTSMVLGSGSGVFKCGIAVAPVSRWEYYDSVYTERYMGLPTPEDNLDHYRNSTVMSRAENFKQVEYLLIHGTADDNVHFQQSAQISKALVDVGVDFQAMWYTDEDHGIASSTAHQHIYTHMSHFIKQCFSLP

First: CC[C@H](C)[C@H](NC(=O)[C@H](Cc1c[nH]cn1)NC(=O)CNC(=O)[C@H](CCC(=O)O)NC(=O)[C@H](CCC(N)=O)NC(=O)[C@H](CC(=O)O)NC(=O)[C@H](CC(N)=O)NC(=O)[C@H](CCCN=C(N)N)NC(=O)[C@H](C)NC(=O)[C@@H]1Cc2ccccc2CN1C(=O)[C@@H](N)[C@@H](C)O)C(=O)N[C@@H](CC(C)C)C(=O)N[C@@H](CCCCN)C(=O)N[C@@H](CCSC)C(=O)N[C@@H](Cc1ccccc1)C(=O)N1CCC[C@H]1C(=O)N[C@@H](CO)C(=O)N[C@H](C(=O)N[C@@H](Cc1c[nH]c2ccccc12)C(=O)N[C@@H](Cc1ccc(O)cc1)C(=O)N[C@H](C(=O)O)C(C)C)[C@@H](C)O (H-T[Tic]ARNDQEGHILKMFPSTWYV-OH)
Second: CC[C@H](C)[C@H](NC(=O)[C@H](Cc1c[nH]cn1)NC(=O)CNC(=O)[C@H](CCC(=O)O)NC(=O)[C@H](CCC(N)=O)NC(=O)[C@H](CC(=O)O)NC(=O)[C@H](CC(N)=O)NC(=O)[C@H](CCCN=C(N)N)NC(=O)[C@H](C)NC(=O)[C@@H]1Cc2ccccc2CN1C(=O)[C@@H](N)C(C)C)C(=O)N[C@@H](CC(C)C)C(=O)N[C@@H](CCCCN)C(=O)N[C@@H](CCSC)C(=O)N[C@@H](Cc1ccccc1)C(=O)N1CCC[C@H]1C(=O)N[C@@H](CO)C(=O)N[C@H](C(=O)N[C@@H](Cc1c[nH]c2ccccc12)C(=O)N[C@@H](Cc1ccc(O)cc1)C(=O)N[C@H](C(=O)O)C(C)C)[C@@H](C)O (H-V[Tic]ARNDQEGHILKMFPSTWYV-OH)
The inhibition of the first is higher: 17% for the first, 3% for the second.

Going from `CC[C@H](C)[C@H](NC(=O)[C@H](Cc1c[nH]cn1)NC(=O)CNC(=O)[C@H](CCC(=O)O)NC(=O)[C@H](CCC(N)=O)NC(=O)[C@H](CC(=O)O)NC(=O)[C@H](CC(N)=O)NC(=O)[C@H](CCCN=C(N)N)NC(=O)[C@H](C)NC(=O)[C@@H]1Cc2ccccc2CN1C(=O)[C@@H](N)CS)C(=O)N[C@@H](CC(C)C)C(=O)N[C@@H](CCCCN)C(=O)N[C@@H](CCSC)C(=O)N[C@@H](Cc1ccccc1)C(=O)N1CCC[C@H]1C(=O)N[C@@H](CO)C(=O)N[C@H](C(=O)N[C@@H](Cc1c[nH]c2ccccc12)C(=O)N[C@@H](Cc1ccc(O)cc1)C(=O)N[C@H](C(=O)O)C(C)C)[C@@H](C)O` (H-C[Tic]ARNDQEGHILKMFPSTWYV-OH) to `CC[C@H](C)[C@H](NC(=O)[C@H](Cc1c[nH]cn1)NC(=O)CNC(=O)[C@H](CCC(=O)O)NC(=O)[C@H](CCC(N)=O)NC(=O)[C@H](CC(=O)O)NC(=O)[C@H](CC(N)=O)NC(=O)[C@H](CCCN=C(N)N)NC(=O)[C@H](C)NC(=O)[C@@H]1Cc2ccccc2CN1C(=O)CN)C(=O)N[C@@H](CC(C)C)C(=O)N[C@@H](CCCCN)C(=O)N[C@@H](CCSC)C(=O)N[C@@H](Cc1ccccc1)C(=O)N1CCC[C@H]1C(=O)N[C@@H](CO)C(=O)N[C@H](C(=O)N[C@@H](Cc1c[nH]c2ccccc12)C(=O)N[C@@H](Cc1ccc(O)cc1)C(=O)N[C@H](C(=O)O)C(C)C)[C@@H](C)O` (H-G[Tic]ARNDQEGHILKMFPSTWYV-OH), the inhibition falls from 9% to 0%.

First: CC[C@H](C)[C@H](NC(=O)[C@H](Cc1c[nH]cn1)NC(=O)CNC(=O)[C@H](CCC(=O)O)NC(=O)[C@H](CCC(N)=O)NC(=O)[C@H](CC(=O)O)NC(=O)[C@H](CC(N)=O)NC(=O)[C@H](CCCN=C(N)N)NC(=O)[C@H](C)NC(=O)[C@@H]1Cc2ccccc2CN1C(=O)[C@@H](N)Cc1c[nH]c2ccccc12)C(=O)N[C@@H](CC(C)C)C(=O)N[C@@H](CCCCN)C(=O)N[C@@H](CCSC)C(=O)N[C@@H](Cc1ccccc1)C(=O)N1CCC[C@H]1C(=O)N[C@@H](CO)C(=O)N[C@H](C(=O)N[C@@H](Cc1c[nH]c2ccccc12)C(=O)N[C@@H](Cc1ccc(O)cc1)C(=O)N[C@H](C(=O)O)C(C)C)[C@@H](C)O (H-W[Tic]ARNDQEGHILKMFPSTWYV-OH)
Second: CC[C@H](C)[C@H](NC(=O)[C@H](Cc1c[nH]cn1)NC(=O)CNC(=O)[C@H](CCC(=O)O)NC(=O)[C@H](CCC(N)=O)NC(=O)[C@H](CC(=O)O)NC(=O)[C@H](CC(N)=O)NC(=O)[C@H](CCCN=C(N)N)NC(=O)[C@H](C)NC(=O)[C@@H]1Cc2ccccc2CN1C(=O)[C@@H](N)Cc1c[nH]cn1)C(=O)N[C@@H](CC(C)C)C(=O)N[C@@H](CCCCN)C(=O)N[C@@H](CCSC)C(=O)N[C@@H](Cc1ccccc1)C(=O)N1CCC[C@H]1C(=O)N[C@@H](CO)C(=O)N[C@H](C(=O)N[C@@H](Cc1c[nH]c2ccccc12)C(=O)N[C@@H](Cc1ccc(O)cc1)C(=O)N[C@H](C(=O)O)C(C)C)[C@@H](C)O (H-H[Tic]ARNDQEGHILKMFPSTWYV-OH)
The inhibition of the first is higher: 61% for the first, 7% for the second.

Compared with `CC[C@H](C)[C@H](N)C(=O)N1Cc2ccccc2C[C@H]1C(=O)N[C@@H](C)C(=O)N[C@@H](CCCN=C(N)N)C(=O)N[C@@H](CC(N)=O)C(=O)N[C@@H](CC(=O)O)C(=O)N[C@@H](CCC(N)=O)C(=O)N[C@@H](CCC(=O)O)C(=O)NCC(=O)N[C@@H](Cc1c[nH]cn1)C(=O)N[C@H](C(=O)N[C@@H](CC(C)C)C(=O)N[C@@H](CCCCN)C(=O)N[C@@H](CCSC)C(=O)N[C@@H](Cc1ccccc1)C(=O)N1CCC[C@H]1C(=O)N[C@@H](CO)C(=O)N[C@H](C(=O)N[C@@H](Cc1c[nH]c2ccccc12)C(=O)N[C@@H](Cc1ccc(O)cc1)C(=O)N[C@H](C(=O)O)C(C)C)[C@@H](C)O)[C@@H](C)CC` (H-I[Tic]ARNDQEGHILKMFPSTWYV-OH), `CC[C@H](C)[C@H](NC(=O)[C@H](Cc1c[nH]cn1)NC(=O)CNC(=O)[C@H](CCC(=O)O)NC(=O)[C@H](CCC(N)=O)NC(=O)[C@H](CC(=O)O)NC(=O)[C@H](CC(N)=O)NC(=O)[C@H](CCCN=C(N)N)NC(=O)[C@H](C)NC(=O)[C@@H]1Cc2ccccc2CN1C(=O)[C@H]1CCCN1)C(=O)N[C@@H](CC(C)C)C(=O)N[C@@H](CCCCN)C(=O)N[C@@H](CCSC)C(=O)N[C@@H](Cc1ccccc1)C(=O)N1CCC[C@H]1C(=O)N[C@@H](CO)C(=O)N[C@H](C(=O)N[C@@H](Cc1c[nH]c2ccccc12)C(=O)N[C@@H](Cc1ccc(O)cc1)C(=O)N[C@H](C(=O)O)C(C)C)[C@@H](C)O` is lower in inhibition: 6% for the first, 2% for the second.

Each molecule was assayed against T1, Dipeptidyl peptidase 4 (assay: Percent inhibition of Dipeptidyl peptidase IV (DPP IV) at a concentration of 10 uM).

Going from `N[C@@H](Cc1c[nH]c2ccccc12)C(=O)N1Cc2ccccc2C[C@H]1C(=O)N[C@@H](CS)C(=O)O` (H-Trp-[Tic]-Cys-OH) to `CC(C)C[C@H](NC(=O)[C@@H]1Cc2ccccc2CN1C(=O)[C@@H](N)Cc1c[nH]c2ccccc12)C(=O)O` (H-Trp-[Tic]-Leu-OH), the inhibition falls from 49% to 25%.

First: NC(N)=NCCC[C@H](NC(=O)[C@@H]1Cc2ccccc2CN1C(=O)[C@@H](N)Cc1c[nH]c2ccccc12)C(=O)O (H-Trp-[Tic]-Arg-OH)
Second: NCCCC[C@H](NC(=O)[C@@H]1Cc2ccccc2CN1C(=O)[C@@H](N)Cc1c[nH]c2ccccc12)C(=O)O (H-Trp-[Tic]-Lys-OH)
The inhibition of the first is higher: 38% for the first, 27% for the second.

Compared with `N[C@@H](Cc1c[nH]c2ccccc12)C(=O)N[C@@H](Cc1ccc(O)cc1)C(=O)O` (H-Trp-Tyr-OH), `N[C@@H](Cc1c[nH]c2ccccc12)C(=O)N[C@@H](Cc1ccccc1)C(=O)O` (H-Trp-Phe-OH) is lower in inhibition: 10% for the first, 0% for the second.

First: N[C@@H](Cc1c[nH]c2ccccc12)C(=O)N[C@@H](Cc1c[nH]c2ccccc12)C(=O)O (H-Trp-Trp-OH)
Second: N[C@@H](Cc1c[nH]c2ccccc12)C(=O)N1Cc2ccccc2C[C@H]1C(=O)N[C@@H](Cc1c[nH]c2ccccc12)C(=O)O (H-Trp-[Tic]-Trp-OH)
The inhibition of the first is lower: 2% for the first, 37% for the second.

First: N[C@@H](Cc1c[nH]c2ccccc12)C(=O)N1Cc2ccccc2C[C@H]1C(=O)N1CCC[C@H]1C(=O)O (H-Trp-[Tic]-Pro-OH)
Second: N[C@@H](Cc1c[nH]c2ccccc12)C(=O)N1Cc2ccccc2C[C@H]1C(=O)NCC(=O)O (H-Trp-[Tic]-Gly-OH)
The inhibition of the first is lower: 20% for the first, 34% for the second.

First: CSCC[C@H](NC(=O)[C@@H]1Cc2ccccc2CN1C(=O)[C@@H](N)Cc1c[nH]c2ccccc12)C(=O)O (H-Trp-[Tic]-Met-OH)
Second: NC(=O)CC[C@H](NC(=O)[C@@H]1Cc2ccccc2CN1C(=O)[C@@H](N)Cc1c[nH]c2ccccc12)C(=O)O (H-Trp-[Tic]-Gln-OH)
The inhibition of the first is lower: 43% for the first, 49% for the second.

Going from `N[C@@H](Cc1c[nH]c2ccccc12)C(=O)N1Cc2ccccc2C[C@H]1C(=O)N[C@@H](Cc1c[nH]cn1)C(=O)O` (H-Trp-[Tic]-His-OH) to `N[C@@H](Cc1c[nH]c2ccccc12)C(=O)N1Cc2ccccc2C[C@H]1C(=O)N[C@@H](CC(=O)O)C(=O)O` (H-Trp-[Tic]-Asp-OH), the inhibition rises from 35% to 38%.

Going from `C[C@H](O)[C@H](NC(=O)[C@@H]1Cc2ccccc2CN1C(=O)[C@@H](N)Cc1c[nH]c2ccccc12)C(=O)O` to `CC(C)[C@H](NC(=O)[C@@H]1Cc2ccccc2CN1C(=O)[C@@H](N)Cc1c[nH]c2ccccc12)C(=O)O` (H-Trp-[Tic]-Val-OH), the inhibition falls from 37% to 19%.

Compared with `N[C@@H](Cc1c[nH]c2ccccc12)C(=O)N1CCC[C@H]1C(=O)O` (H-Trp-Pro-OH), `CC(C)[C@H](NC(=O)[C@@H](N)Cc1c[nH]c2ccccc12)C(=O)O` (H-Trp-Val-OH) is lower in inhibition: 15% for the first, 4% for the second.

First: CC[C@@H](C)[C@H](NC(=O)[C@@H]1Cc2ccccc2CN1C(=O)[C@@H](N)Cc1c[nH]c2ccccc12)C(=O)O
Second: C[C@H](NC(=O)[C@@H]1Cc2ccccc2CN1C(=O)[C@@H](N)Cc1c[nH]c2ccccc12)C(=O)O (H-Trp-[Tic]-Ala-OH)
The inhibition of the first is lower: 32% for the first, 43% for the second.

Compared with `N[C@@H](Cc1c[nH]c2ccccc12)C(=O)N1Cc2ccccc2C[C@H]1C(=O)N[C@@H](Cc1ccc(O)cc1)C(=O)O` (H-Trp-[Tic]-Tyr-OH), `N[C@@H](Cc1c[nH]c2ccccc12)C(=O)N1Cc2ccccc2C[C@H]1C(=O)N[C@@H](Cc1ccccc1)C(=O)O` (H-Trp-[Tic]-Phe-OH) is lower in inhibition: 36% for the first, 29% for the second.

Compared with `NC(=O)C[C@H](NC(=O)[C@@H]1Cc2ccccc2CN1C(=O)[C@@H](N)Cc1c[nH]c2ccccc12)C(=O)O` (H-Trp-[Tic]-Asn-OH), `N[C@@H](Cc1c[nH]c2ccccc12)C(=O)N[C@@H](CCC(=O)O)C(=O)O` (H-Trp-Glu-OH) is lower in inhibition: 46% for the first, 3% for the second.

From ChEMBL document CHEMBL1131542, “A potent dipeptide inhibitor of dipeptidyl peptidase IV” (Bioorg Med Chem Lett, 1998)
